This test has as its system PK1 neuroblastoma cells exposed to TPrP. Nature of the test: cells. To be noted: Neuroblastoma cell, 96 h, read-out: TPrP EC50.
By EC50 is commonly meant the concentration giving half of the maximal effect. With `Cc1ccc(-c2cn(-c3ccccc3)nn2)cc1S(=O)(=O)N1CCOCC1` [SR-30084, 4-((2-Methyl-5-(1-phenyl-1H-1,2,3-triazol-4-yl)phenyl)sulfonyl)morpholine], the concentration for a half-maximal effect (EC50) was 30 nM.

Consider `C[C@@H]1CN(S(=O)(=O)c2cc(-c3nnc(-c4ccccc4)[nH]3)ccc2C(F)(F)F)C[C@H](C)O1` [SR-30786, (cis)-2,6-dimethyl-4-((5-(5-phenyl-4H-1,2,4-triazol-3-yl)-2-(trifluoromethyl)phenyl)sulfonyl)morpholine], for which the 50% effective concentration (EC50) was more than 1200 nM.

With `O=S(=O)(c1cc(-c2nnc(-c3ccccc3)[nH]2)ccc1OC(F)(F)F)N1CCOCC1` [SR-31545, 4-((5-(5-Phenyl-4H-1,2,4-triazol-3-yl)-2-(trifluoromethoxy)phenyl)sulfonyl) morpholine], the half-maximal effective concentration (EC50) was more than 1500 nM.

Consider `Cc1ccc(-c2nnc(-c3ccccc3)[nH]2)cc1S(=O)(=O)NCc1cccnc1` [SR-31584, 2-Methyl-5-(5-phenyl-4H-1,2,4-triazol-3-yl)-N-(pyridin-3-ylmethyl)benzene sulfonamide], for which the half-maximal effective concentration (EC50) is 90 nM.

For `Cc1ccc(-c2nnc(-c3ccccc3)[nH]2)cc1S(=O)(=O)NCCN1CCOCC1` [SR-31824, 2-Methyl-N-(2-morpholinoethyl)-5-(5-phenyl-4H-1,2,4-triazol-3-yl)benzene sulfonamide], the EC50 was more than 1500 nM.

Regarding `Cc1ccc(-c2nnc(-c3ccccc3)[nH]2)cc1C(=O)N1CCOCC1` [SR-32044, (2-Methyl-5-(5-phenyl-4H-1,2,4-triazol-3-yl)phenyl)(morpholino)methanone], the EC50 was approximately 1500 nM.

With `Cc1ccc(-c2nnc(-c3ccccc3)[nH]2)cc1S(=O)(=O)N1CCC(O)CC1` [SR-32045, 1-((2-Methyl-5-(5-phenyl-4H-1,2,4-triazol-3-yl)phenyl)sulfonyl)piperidin-4-ol], the half-maximal effective concentration (EC50) was more than 1500 nM.

In the case of `Cc1ccc(-c2nnc(-c3ccccc3)[nH]2)cc1S(=O)(=O)N1CCN(CCO)CC1` [SR-32124], the half-maximal effective concentration (EC50) worked out at 15 nM.

On to `Cc1ccc(-c2nnc(-c3ccccc3)[nH]2)cc1S(=O)(=O)NCc1ccccn1` [SR-32144, 2-Methyl-5-(5-phenyl-4H-1,2,4-triazol-3-yl)-N-(pyridin-2-ylmethyl)benzene sulfonamide], for which the EC50 is more than 1500 nM.

As for `Cc1ccc(-c2nnc(-c3ccccc3)[nH]2)cc1S(=O)(=O)NC(C)(C)CO` [SR-32184, N-(1-hydroxy-2-methylpropan-2-yl)-2-methyl-5-(5-phenyl-4H-1,2,4-triazol-3-yl)benzenesulfonamide], the half-maximal effective concentration (EC50) amounted to 180 nM.

As for `Cc1ccc(-c2nnc(-c3ccccc3)[nH]2)cc1S(=O)(=O)N1CCC(O)C1` (stereo not shown) [SR-32284, 1-((2-Methyl-5-(5-phenyl-4H-1,2,4-triazol-3-yl)phenyl)sulfonyl)pyrrolidin-3-ol], the EC50 turned out to be 550 nM.

With `Cc1ccc(-c2nnc(-c3ccccc3)[nH]2)cc1S(=O)(=O)N1CCOCC1C` (stereo not shown) [SR-32286, 3-Methyl-4-((2-methyl-5-(5-phenyl-4H-1,2,4-triazol-3-yl)phenyl)sulfonyl) morpholine], the EC50 came to 110 nM.

For the molecule `Cc1ccc(-c2nnc(-c3ccccc3)[nH]2)cc1S(=O)(=O)N1CCN(C2COC2)CC1` [SR-32324, 1-((2-Methyl-5-(5-phenyl-4H-1,2,4-triazol-3-yl)phenyl)sulfonyl)-4-(oxetan-3-yl)piperazine], the EC50 is 900 nM.

Turning to `Cc1ccc(-c2nnc(-c3ccccc3)[nH]2)cc1S(=O)(=O)N1C[C@H]2COC[C@H]2C1` [SR-32404, (3aR,6aS)-5-((2-Methyl-5-(5-phenyl-4H-1,2,4-triazol-3-yl)phenyl)sulfonyl) hexahydro-1H-furo[3,4-c]pyrrole], the EC50 was 800 nM.

For `Cc1ccc(-c2nnc(-c3ccccc3)[nH]2)cc1S(=O)(=O)N1C2CCC1COC2` [SR-32704, 8-((2-Methyl-5-(5-phenyl-4H-1,2,4-triazol-3-yl)phenyl)sulfonyl)-3-oxa-8-azabicyclo[3.2.1]octane], the 50% effective concentration (EC50) came to 800 nM.

Turning to `Cc1ccc(-c2nnc(-c3ccccc3)[nH]2)cc1S(=O)(=O)N1CCC2(CC1)OCCO2` [SR-32705, 8-((2-Methyl-5-(5-phenyl-4H-1,2,4-triazol-3-yl)phenyl)sulfonyl)-1,4-dioxa-8-azaspiro[4.5]decane], the EC50 was more than 1500 nM.

For the molecule `Cc1ccc(-c2nnc(-c3ccccc3)[nH]2)cc1S(=O)(=O)N1CCC2(CC1)OCCCO2` [SR-32744, 9-((2-Methyl-5-(5-phenyl-4H-1,2,4-triazol-3-yl)phenyl)sulfonyl)-1,5-dioxa-9-azaspiro[5.5]undecane], the half-maximal effective concentration (EC50) was more than 1500 nM.

`Cc1ccc(-c2nnc(-c3ccccc3)[nH]2)cc1S(=O)(=O)NC1CCC2(CC1)OCCO2` [SR-32764, 2-Methyl-5-(5-phenyl-4H-1,2,4-triazol-3-yl)-N-(1,4-dioxaspiro[4.5]decan-8-yl)benzenesulfonamide]: the EC50 was more than 1500 nM.

Consider `Cc1ccc(-c2nnc(-c3ccccc3)[nH]2)cc1S(=O)(=O)N1CCC(O)(c2ccccc2)CC1` [SR-32784, 1-((2-Methyl-5-(5-phenyl-4H-1,2,4-triazol-3-yl)phenyl)sulfonyl)-4-phenyl piperidin-4-ol], for which the half-maximal effective concentration (EC50) was more than 1500 nM.

Take `Cc1ccc(-c2nnc(-c3ccccc3)[nH]2)cc1S(=O)(=O)N1CCC(O)(c2cccnc2)CC1` [SR-32924, 1-((2-Methyl-5-(5-phenyl-4H-1,2,4-triazol-3-yl)phenyl)sulfonyl)-4-(pyridin-3-yl)piperidin-4-ol]: the 50% effective concentration (EC50) was more than 1500 nM.

`Cc1ccc(-c2nnc(-c3ccccc3)[nH]2)cc1S(=O)(=O)N1CCC2(CCCO2)CC1` [SR-32925, 8-((2-Methyl-5-(5-phenyl-4H-1,2,4-triazol-3-yl)phenyl)sulfonyl)-1-oxa-8-azaspiro[4.5]decane]: the EC50 was more than 1500 nM.

Take `Cc1ccc(-c2nnc(-c3ccccc3)[nH]2)cc1S(=O)(=O)N1CC(O)C1` [SR-32944, 1-((2-Methyl-5-(5-phenyl-4H-1,2,4-triazol-3-yl)phenyl)sulfonyl)azetidin-3-ol]: the EC50 turned out to be 15 nM.

For the molecule `Cc1ccc(-c2nnc(-c3ccccc3)[nH]2)cc1S(=O)(=O)N1CCOCC1CO` (stereo not shown) [SR-32945, (4-((2-Methyl-5-(5-phenyl-4H-1,2,4-triazol-3-yl)phenyl)sulfonyl)morpholin-3-yl)methanol], the concentration giving a half-maximal response (EC50) was 300 nM.

For the molecule `Cc1ccc(-c2nnc(-c3ccccc3)[nH]2)cc1S(=O)(=O)N1CCC2(CC1)OCc1ccccc12` [SR-32984, 1′-((2-Methyl-5-(5-phenyl-4H-1,2,4-triazol-3-yl)phenyl)sulfonyl)-3H-spiro[isobenzofuran-1,4′-piperidine]], the EC50 was more than 1500 nM.

As to `Cc1ccc(-c2nnc(-c3ccccc3)[nH]2)cc1S(=O)(=O)N1CCC(O)(Cc2ccccc2)CC1` [SR-33024, 4-Benzyl-1-((2-methyl-5-(5-phenyl-4H-1,2,4-triazol-3-yl)phenyl)sulfonyl) piperidin-4-ol], the half-maximal effective concentration (EC50) is more than 1500 nM.

Consider `Cc1ccc(-c2nnc(-c3ccccc3)[nH]2)cc1S(=O)(=O)N1CCCC2(C1)OCCO2` [SR-33045, 7-((2-Methyl-5-(5-phenyl-4H-1,2,4-triazol-3-yl)phenyl)sulfonyl)-1,4-dioxa-7-azaspiro[4.5]decane], for which the EC50 is more than 1500 nM.

Consider `Cc1ccc(-c2nnc(-c3ccccc3)[nH]2)cc1S(=O)(=O)NCc1cncnc1` [SR-33344, 2-Methyl-5-(5-phenyl-4H-1,2,4-triazol-3-yl)-N-(pyrimidin-5-ylmethyl)benzene sulfonamide], for which the EC50 stood at 650 nM.

Turning to `Cc1ccc(-c2nnc(-c3ccccc3)[nH]2)cc1S(=O)(=O)N1CCN(CCc2ccncc2)CC1` [SR-33364, 1-((2-Methyl-5-(5-phenyl-4H-1,2,4-triazol-3-yl)phenyl)sulfonyl)-4-(2-(pyridin-4-yl)ethyl)piperazine], the EC50 was 5 nM.

In the case of `Cc1c(F)cc(-c2nnc(-c3ccccc3)[nH]2)cc1S(=O)(=O)N1CCN(CCO)CC1` [SR-33604, 2-(4-((3-Fluoro-2-methyl-5-(5-phenyl-4H-1,2,4-triazol-3-yl)phenyl)sulfonyl)piperazin-1-yl)ethan-1-ol], the concentration for a half-maximal effect (EC50) amounted to 90 nM.

`Cc1ccc(-c2nnc(-c3ccccc3)[nH]2)cc1S(=O)(=O)N1CCC(CCO)CC1` [SR-33725, 2-(1-((2-Methyl-5-(5-phenyl-4H-1,2,4-triazol-3-yl)phenyl)sulfonyl)piperidin-4-yl)ethan-1-ol]: the half-maximal effective concentration (EC50) is more than 1500 nM.

`Cc1ccc(-c2nnc(-c3ccccc3)[nH]2)cc1S(=O)(=O)N1CCN(CCNC(=O)OC(C)(C)C)CC1` [SR-34024, tert-Butyl (2-(4-((2-methyl-5-(5-phenyl-4H-1,2,4-triazol-3-yl)phenyl)sulfonyl)piperazin-1-yl)ethyl)carbamate]: the EC50 was approximately 1500 nM.

As to `Cc1ccc(-c2ccnc(N3CCOCC3)c2)cc1S(=O)(=O)N1CC(O)C1` [SR-34464, 1-((2-Methyl-5-(2-morpholinopyridin-4-yl)phenyl)sulfonyl)azetidin-3-ol], the half-maximal effective concentration (EC50) was 300 nM.

Regarding `COCCN1CCN(S(=O)(=O)c2cc(-c3nnc(-c4ccccc4)[nH]3)ccc2C)CC1` [SR-34533, 1-(2-Methoxyethyl)-4-((2-methyl-5-(5-phenyl-4H-1,2,4-triazol-3-yl)phenyl)sulfonyl)piperazine], the EC50 was more than 1500 nM.

In the case of `Cc1cc(C)c(S(=O)(=O)N2CCN(CCO)CC2)cc1-c1nnc(-c2ccccc2)[nH]1` [SR-34778, 2-(4-((2,4-Dimethyl-5-(5-phenyl-4H-1,2,4-triazol-3-yl)phenyl)sulfonyl)piperazin-1-yl)ethan-1-ol], the EC50 is 13 nM.

Turning to `Cc1ccc(-c2ccnc(Cl)c2)cc1S(=O)(=O)N1CCN(CCO)CC1` [SR-34793, 2-(4-((5-(2-Chloropyridin-4-yl)-2-methylphenyl)sulfonyl)piperazin-1-yl)ethan-1-ol], the EC50 turned out to be 40 nM.

`Cc1cc(C)c(S(=O)(=O)N2CCN(CCO)CC2)cc1-c1ccnc(Cl)c1` [SR-34951, 2-(4-((5-(2-Chloropyridin-4-yl)-2,4-dimethylphenyl)sulfonyl)piperazin-1-yl)ethan-1-ol]: the EC50 was 90 nM.

For the molecule `Cc1cc(F)c(-c2ccnc(Cl)c2)cc1S(=O)(=O)N1CCN(CCO)CC1` [SR-35015, 2-(4-((5-(2-Chloropyridin-4-yl)-4-fluoro-2-methylphenyl)sulfonyl)piperazin-1-yl)ethan-1-ol], the concentration for a half-maximal effect (EC50) worked out at 50 nM.

The values above are taken from patent US20240124466A1, “COMPOUNDS AND USE THEREOF FOR TREATMENT OF NEURODEGENERATIVE, DEGENERATIVE AND METABOLIC DISORDERS” (VOVA IDA THERAPEUTICS, INC., priority 2020, published 2024).
